Measurements from US20090076050A1, “SYNERGISTIC TUMOR-KILLING EFFECT OF RADIATION AND BERBERINE COMBINED TREATMENT IN LUNG CANCER” (CHUNG SHAN MEDICAL U., priority 2007, published 2009).

How the values were obtained:
[1] = test system: A549 cells; experiment: acridine orange staining of acidic vesicular organelles (microscopy and FACS); format: cell-based, human; settings: for proportion of acridine orange-positive cells: 24 h, IR alone 12.5%
Procedure: Autophagic cell death has been recognized as programmed cell death type II, it has been detected in a variety of cancer cells treated with radiation or chemotherapy. Therefore, it had been examined whether IR treatment combined with berberine induced autophagic cell death in A549 cells by electron microscopic analysis (FIG. 4A). Cells were harvested by trypsinization, and fixed with 2% glutaraldehyde, 4% paraformaldehyde and 1% tannic acid in 0.1 mol/L cacodylate buffer, pH 7.4, for 25 h. The cells were stained with an osmium-thiocarbohydrazide-osmium (OTO). After staining, the cells were dehydrated in a graded series of 70% to 100% EtOH and then immersed serially with 1:1 hexamethyldisilazane and absolute ethanol. One micrometer thin sections were cut, and the gels were coated with 500 Å of gold in a JEOL Vacuum sputter coater and viewed in a JEOL […] electron microscope with scanning attachment (JEOL, Tokyo, Japan). […] Autophagy is characterized by the development of AVOs, which is measured by vital staining of acridine orange. Acridine orange (Polysciences, Warrington, Pa.) was added to cells at a final concentration of 1 μg/mL for a period of 15 min. Pictures were taken with a fluorescent microscope (Nikon TE-300) equipped with a 490-nm band-pass blue excitation filters, a 500-nm dichroic mirror, and a 515-nm-long pass-barrier filter. To quantitate acidic vesicular organelles, Stained cells were collected for the FACScan (Becton Dickinson, San Jose, Calif.) using CellQuest software (Becton Dickinson). Acridine orange-positive cells with bright red fluorescence were detected among A549 cells 24 h after co-treated with berberine and IR (6 Gy), whereas they were sparse among non-treated cells or irradiated cells (FIG. 4B). […] FIG. 4C).

[2] = test system: A549 cells; experiment: electron microscopic analysis of autophagy; format: cell-based, human; settings: IR and 5.0 μM berberine, 24 h
Procedure: Autophagic cell death has been recognized as programmed cell death type II, it has been detected in a variety of cancer cells treated with radiation or chemotherapy. Therefore, it had been examined whether IR treatment combined with berberine induced autophagic cell death in A549 cells by electron microscopic analysis (FIG. 4A). Cells were harvested by trypsinization, and fixed with 2% glutaraldehyde, 4% paraformaldehyde and 1% tannic acid in 0.1 mol/L cacodylate buffer, pH 7.4, for 25 h. The cells were stained with an osmium-thiocarbohydrazide-osmium (OTO). After staining, the cells were dehydrated in a graded series of 70% to 100% EtOH and then immersed serially with 1:1 hexamethyldisilazane and absolute ethanol. […] Autophagy is characterized by the development of AVOs, which is measured by vital staining of acridine orange. […] To quantitate acidic vesicular organelles, Stained cells were collected for the FACScan (Becton Dickinson, San Jose, Calif.) using CellQuest software (Becton Dickinson). Acridine orange-positive cells with bright red fluorescence were detected among A549 cells 24 h after co-treated with berberine and IR (6 Gy), whereas they were sparse among non-treated cells or irradiated cells (FIG. 4B). […]

[3] = test system: A549 cells
Procedure: Cells were cultured in phenol-red-free medium and irradiated with a […] (Varian, 21-EX). The radiation was delivered as a single dose ranging from 2 to 8 Gy in an appropriate field size at a dose rate of 400 cGy/min. A 3-cm polystyrene block was used under the petri dishes during each irradiation to allow homogeneous backscattering radiation. Control cells were removed from the incubator and placed for the same period of time under the IR source but without radiation treatment. In the combined treatment mortality tests, berberine was added 2 h prior to irradiation.
The enhancing effect of berberine on radio-sensitivity in NSCLC was performed by treating A549 with various concentrations of berberine alone or combined with different dose of IR at 37° C. for 24 h or 48 h followed by MTT assay for cell viability analysis. Thereafter, the medium was changed and incubated with 100 μl MTT (Sigma St Louis, Mo.)/well for 4 h, which was solubilized in isopropanol, and measured spectrophotometrically at 563 nm. […] To further ascertain the effect of berberine on the lethality of IR, clonogenic survival assay was performed to examine long term survival. […] After 14 days, colonies were fixed with methanol, stained with 0.25% crystal violet, and counted if they were consisted of more than 50 cells. […]

[4] = blood biochemical analysis in LLC model mice; format: in vivo, C57BL/6 mice; settings: all six groups incl. berberine 1.0, 2.0 mg/kg i.p. alone or with IR, end of experiment
Procedure: The application of the additive cytotoxicity of IR combined with berberine in cancer treatment was further evidenced in an in vivo Lewis lung carcinoma (LLC) model in mice (Camphausen K, et al. Cancer Res 2001; 61:2207-11). Male C57BL/6 mice aged 4-6 weeks (National Taiwan University Animal Center, Taiwan) were used. To form a tumor xenograft, Lewis lung cells (2×10^6) were injected s.c. into the right hind limb. Animals were randomized into six groups: control, irradiation (IR) alone, berberine (1.0, 2.0 mg/kg) alone, and IR combined with berberine (1.0, 2.0 mg/kg). For tumor irradiation, mice were immobilized in a customized harness that exposed the right hind leg while shielding the remainder of the body by 3.5 cm of lead. Mice were exposed to a single dose of 8 Gy. […] To obtain tumor growth curves, three orthogonal tumor diameters were measured every 4-day intervals with a vernier caliper, and the mean values were calculated. […] Primary tumor growth delay was measured by calipers in two dimensions, and the volumes were calculated according to the formula: tumor volume=(width) 2×length×0.52. […] The tumor volume at the primary site of each group was measured before treatment, and the average tumor volume was designated as T0. When the animals were sacrificed at the end of experiment, the xenografts were removed, and the tumor volume was determined and presented as fold of T0. […]

Structure (SMILES): COc1ccc2cc3[n+](cc2c1OC)CCc1cc2c(cc1-3)OCO2 [berberine, Berberine]
- proportion of acridine orange-positive cells ([1]; 6 Gy irradiation combined with 5.0 μM berberine): 50.3%
- proportion of acridine orange-positive cells ([1]; 6 Gy irradiation combined with 10 μM berberine): 62.6%
- acridine orange-positive cells with bright red fluorescence (microscopy) ([1]; 24 h after co-treatment with berberine and IR (6 Gy)): detected
- autophagic vacuoles by electron microscopy [2]: Numerous empty vacuoles and autophagic vacuoles
- cell viability ([3]; IR applied to cells incubated with berberine, 24 h and 48 h, A549 (FIG. 1B)): decreased
- combination effect on cell viability ([3]; berberine combined with 6 Gy IR, 24 h, A549 (FIG. 1A)): conspicuous
- serum levels of AST, ALT, urea nitrogen, creatinine, complete blood cell counts, triglyceride and total cholesterol [4]: no difference among groups
